Patent US5112858A, “Antibiotic, aranorosin, a microbiological process for the preparation thereof, and the use thereof as a pharmaceutical” (Hoechst Aktiengesellschaft, priority 1988, dated 1992)
Converted amounts (≈) assume the structure as drawn.

Assays:
[1] = test system: malignant tumors and leukemias; assay: Cytostatic activity (statement); assay type: cell-based; conditions: general statement, no data given
[2] = Solubility; assay type: physicochemical
[3] = test system: Gram-positive and Gram-negative bacteria as well as yeasts and filamentous fungi; assay: Antibacterial and antifungal activity (summary statement); assay type: cell-based
From the text: (§1) The minimum inhibitory concentrations of the new antibiotic aranorosin required to inhibit various strains of bacteria and fungi are listed in Table I.

[4] = test system: Cercospora beticola; assay: MIC against bacteria and fungi (Table I); assay type: cell-based; conditions: read-out: Minimum inhibitory concentration (MIC)
From the text: as §1

[5] = test system: Streptococcus faecalis; assay: MIC against bacteria and fungi (Table I); assay type: cell-based; conditions: Enterococcus faecalis, read-out: Minimum inhibitory concentration (MIC)
From the text: as §1

[6] = test system: Candida albicans; assay: MIC against bacteria and fungi (Table I); assay type: cell-based; conditions: read-out: Minimum inhibitory concentration (MIC)
From the text: as §1

[7] = test system: E. coli DC 2; assay: MIC against bacteria and fungi (Table I); assay type: cell-based; conditions: Escherichia coli, DC2, read-out: Minimum inhibitory concentration (MIC)
From the text: as §1

[8] = test system: Enterobacter cloacae P 99; assay: MIC against bacteria and fungi (Table I); assay type: cell-based; conditions: P99, read-out: Minimum inhibitory concentration (MIC)
From the text: as §1

[9] = test system: E. coli 055; assay: MIC against bacteria and fungi (Table I); assay type: cell-based; conditions: Escherichia coli, read-out: Minimum inhibitory concentration (MIC)
From the text: as §1

[10] = test system: Pseudomonas aeruginosa 1771 M; assay: MIC against bacteria and fungi (Table I); assay type: cell-based; conditions: read-out: Minimum inhibitory concentration (MIC)
From the text: as §1

[11] = test system: Pseudomonas aeruginosa ATCC 9027; assay: MIC against bacteria and fungi (Table I); assay type: cell-based; conditions: ATCC9027, read-out: Minimum inhibitory concentration (MIC)
From the text: as §1

[12] = test system: Salmonella typhimurium; assay: MIC against bacteria and fungi (Table I); assay type: cell-based; conditions: Salmonella enterica, read-out: Minimum inhibitory concentration (MIC)
From the text: as §1

[13] = test system: Staphylococcus aureus 285; assay: MIC against bacteria and fungi (Table I); assay type: cell-based; conditions: read-out: Minimum inhibitory concentration (MIC)
From the text: as §1

[14] = test system: Klebsiella aerogenes 1522 E; assay: MIC against bacteria and fungi (Table I); assay type: cell-based; conditions: read-out: Minimum inhibitory concentration (MIC)
From the text: as §1

[15] = test system: Streptococcus pyogenes 77 A; assay: MIC against bacteria and fungi (Table I); assay type: cell-based; conditions: read-out: Minimum inhibitory concentration (MIC)
From the text: as §1

[16] = test system: Microspora gypseum; assay: MIC against bacteria and fungi (Table I); assay type: cell-based; conditions: read-out: Minimum inhibitory concentration (MIC)
From the text: as §1

[17] = test system: Streptococcus pyogenes 308A; assay: MIC against bacteria and fungi (Table I); assay type: cell-based; conditions: read-out: Minimum inhibitory concentration (MIC)
From the text: as §1

[18] = test system: Staphylococcus aureus R 85; assay: MIC against bacteria and fungi (Table I); assay type: cell-based; conditions: R85, read-out: Minimum inhibitory concentration (MIC)
From the text: as §1

[19] = test system: Pseudomonas aeruginosa 1771; assay: MIC against bacteria and fungi (Table I); assay type: cell-based; conditions: read-out: Minimum inhibitory concentration (MIC)
From the text: as §1

[20] = test system: Staphylococcus aureus SG 511; assay: MIC against bacteria and fungi (Table I); assay type: cell-based; conditions: SG511, read-out: Minimum inhibitory concentration (MIC)
From the text: as §1

[21] = test system: Aspergillus niger; assay: MIC against bacteria and fungi (Table I); assay type: cell-based; conditions: read-out: Minimum inhibitory concentration (MIC)
From the text: as §1

[22] = test system: Saccaromyces cerevisiae; assay: MIC against bacteria and fungi (Table I); assay type: cell-based; conditions: read-out: Minimum inhibitory concentration (MIC)
From the text: as §1

[23] = test system: Sarcina lutea; assay: MIC against bacteria and fungi (Table I); assay type: cell-based; conditions: Micrococcus luteus, read-out: Minimum inhibitory concentration (MIC)
From the text: as §1

[24] = test system: Penicillium italicum; assay: MIC against bacteria and fungi (Table I); assay type: cell-based; conditions: read-out: Minimum inhibitory concentration (MIC)
From the text: as §1

[25] = test system: E. coli 1507 E; assay: MIC against bacteria and fungi (Table I); assay type: cell-based; conditions: Escherichia coli, read-out: Minimum inhibitory concentration (MIC)
From the text: as §1

[26] = test system: Botrytis cinerea; assay: MIC against bacteria and fungi (Table I); assay type: cell-based; conditions: read-out: Minimum inhibitory concentration (MIC)
From the text: as §1

[27] = test system: Staphylococcus aureus 209 P; assay: MIC against bacteria and fungi (Table I); assay type: cell-based; conditions: read-out: Minimum inhibitory concentration (MIC)
From the text: as §1

[28] = test system: Staphylococcus aureus 20204; assay: MIC against bacteria and fungi (Table I); assay type: cell-based; conditions: read-out: Minimum inhibitory concentration (MIC)
From the text: as §1

[29] = test system: Enterobacter cloacae 1321 E; assay: MIC against bacteria and fungi (Table I); assay type: cell-based; conditions: read-out: Minimum inhibitory concentration (MIC)
From the text: as §1

[30] = test system: Staphylococcus aureus 503; assay: MIC against bacteria and fungi (Table I); assay type: cell-based; conditions: read-out: Minimum inhibitory concentration (MIC)
From the text: as §1

[31] = test system: E. coli TEM; assay: MIC against bacteria and fungi (Table I); assay type: cell-based; conditions: Escherichia coli, read-out: Minimum inhibitory concentration (MIC)
From the text: as §1

[32] = test system: Pseudomonas aeruginosa 1592 E; assay: MIC against bacteria and fungi (Table I); assay type: cell-based; conditions: read-out: Minimum inhibitory concentration (MIC)
From the text: as §1

[33] = test system: E. coli DC O; assay: MIC against bacteria and fungi (Table I); assay type: cell-based; conditions: Escherichia coli, read-out: Minimum inhibitory concentration (MIC)
From the text: as §1

[34] = test system: E. coli Ese 2231; assay: MIC against bacteria and fungi (Table I); assay type: cell-based; conditions: Escherichia coli, ESE2231, read-out: Minimum inhibitory concentration (MIC)
From the text: as §1

[35] = test system: Klebsiella aerogenes 1082 E; assay: MIC against bacteria and fungi (Table I); assay type: cell-based; conditions: read-out: Minimum inhibitory concentration (MIC)
From the text: as §1

[36] = test system: Bacillus subtilis; assay: MIC against bacteria and fungi (Table I); assay type: cell-based; conditions: read-out: Minimum inhibitory concentration (MIC)
From the text: as §1

For CCCCCCC(C)/C=C(C)/C=C/C(=O)NC1CC2(OC1O)C1OC1C(=O)C1OC12 (stereo not shown) [aranorosin], the cytostatic properties [1] was “has cytostatic properties”, the Solubility ([2]; in benzene) was “sparingly soluble” and the Solubility ([2]; in diethyl ether, chloroform, acetone, ethyl acetate, dimethyl sulfoxide and methanol) was “soluble”. For the same molecule, the Solubility ([2]; in petroleum ether) was “Insoluble”, the Solubility ([2]; in water) was “Insoluble” and the “effectiveness against bacteria, yeasts and filamentous fungi” value ([3]; conclusion from Table I) was “effective against Gram-positive and Gram-negative bacteria as well as yeasts and filamentous fungi”. The “bactericidal and fungicidal properties” value ([3]; general statement) was “has bactericidal and fungicidal properties”, the MIC [4] was 3 µg/mL (≈ 7.15 µM) and the MIC [5] was 3 µg/mL (≈ 7.15 µM). It also gave an MIC [6] of 30 µg/mL (≈ 71.5 µM), an MIC [7] of 25 µg/mL (≈ 59.6 µM) and an MIC [8] of 100 µg/mL (≈ 238 µM). The MIC [9] was 100 µg/mL (≈ 238 µM), the MIC [10] was 50 µg/mL (≈ 119 µM) and the MIC [11] was greater than 100 µg/mL. The MIC [12] was 50 µg/mL (≈ 119 µM), the MIC [13] was 0.78 µg/mL (≈ 1.86 µM) and the MIC [14] was 100 µg/mL (≈ 238 µM). It also gave an MIC [15] of 0.78 µg/mL (≈ 1.86 µM), an MIC [16] of 3 µg/mL (≈ 7.15 µM) and an MIC [17] of 0.78 µg/mL (≈ 1.86 µM). The MIC [18] was 1.5 µg/mL (≈ 3.58 µM), the MIC [19] was greater than 100 µg/mL and the MIC [20] was 0.78 µg/mL (≈ 1.86 µM). For the same molecule, the MIC [21] was 7.5 µg/mL (≈ 17.9 µM), the MIC [22] was 500 µg/mL (≈ 1190 µM) and the MIC [23] was 1.5 µg/mL (≈ 3.58 µM). The MIC [24] was 30 µg/mL (≈ 71.5 µM), the MIC [25] was 100 µg/mL (≈ 238 µM) and the MIC [26] was 30 µg/mL (≈ 71.5 µM). It also gave an MIC [27] of 1.5 µg/mL (≈ 3.58 µM), an MIC [28] of 1.5 µg/mL (≈ 3.58 µM) and an MIC [29] of 100 µg/mL (≈ 238 µM). For the same molecule, the MIC [30] was 0.78 µg/mL (≈ 1.86 µM), the MIC [31] was 100 µg/mL (≈ 238 µM) and the MIC [32] was greater than 100 µg/mL. It also gave an MIC [33] of 100 µg/mL (≈ 238 µM), an MIC [34] greater than 200 µg/mL and an MIC [35] of 50 µg/mL (≈ 119 µM). The MIC [36] was 1.5 µg/mL (≈ 3.58 µM).
